From ChEMBL document CHEMBL3351880, “Unexpected DNA affinity and sequence selectivity through core rigidity in guanidinium-based minor groove binders” (J Med Chem, 2014)
Calls of active or inactive are those of the source. The calls are words filed in the database; no cut-off is given here.

How the values were obtained:
[1] = Binding affinity to (AT)4 DNA hairpin sequence (unknown origin) by SPR assay
[2] = Binding affinity to (CG)4 DNA hairpin sequence (unknown origin) by SPR assay
[3] = Binding affinity to AATT DNA hairpin sequence (unknown origin) by SPR assay
[4] = Selectivity index, ratio of binding affinity to (AT)4 DNA hairpin sequence (unknown origin) to binding affinity to AATT DNA hairpin sequence (unknown origin)
[5] = Binding affinity to poly(dA.dT)2 oligonucleotide DNA (unknown origin) assessed as increase in DNA thermal melting temperature at 15 uM spectrophotometry
Salmonidae [6] = assay: Binding affinity to salmon sperm DNA assessed as increase in DNA thermal melting temperature at 15 uM spectrophotometry
[7] = Binding affinity to poly(dA.dT)2 oligonucleotide DNA (unknown origin) assessed as change in ICD signals by CD spectroscopy
[8] = Binding affinity to poly(dA).poly(dT) oligonucleotide DNA (unknown origin) assessed as increase in DNA thermal melting temperature at 15 uM spectrophotometry
Salmonidae [9] = assay: Binding affinity to salmon sperm DNA assessed as change in ICD signals by CD spectroscopy
[10] = Binding affinity to poly(dG.dC)2 oligonucleotide DNA (unknown origin) by UV spectroscopy
Salmonidae [11] = assay: Binding affinity to salmon sperm DNA by UV spectroscopy
[12] = Binding affinity to poly(dA.dT)2 oligonucleotide DNA (unknown origin) by UV spectroscopy
[13] = Binding affinity to poly(dG.dC)2 oligonucleotide DNA (unknown origin) assessed as change in ICD signals by CD spectroscopy

SMILES	K [1] [×10⁵ /M]	K [2] [×10⁵ /M]	K [3] [×10⁵ /M]	Selectivity Index [4]	ΔTm [5] [°C]	ΔTm (Salmonidae [6]) [°C]	Activity [7]	ΔTm [8] [°C]	Activity (Salmonidae [9])	K [10] [×10⁵ /M]	K (Salmonidae [11]) [×10⁵ /M]	K [12] [×10⁵ /M]	Activity [13]
Nc1ccc2cc3ccc(N)cc3nc2c1	12.2	6.5	5.7	< 2.4	–	–	–	–	–	–	–	–	–
c1cc(C2CCN(c3ccc(NC4=NCCN4)cc3)CC2)ccc1NC1=NCCN1	1.4	1.5	1.1	< 2.4	–	–	–	–	–	–	–	–	–
c1cc(NC2=NCCN2)cc(Oc2ccc(NC3=NCCN3)cc2)c1	1.5	< 1	< 1	< 2.4	–	–	–	–	–	–	–	–	–
c1cc(NC2=NCCN2)ccc1CCc1ccc(NC2=NCCN2)cc1	1	< 1	< 1	< 2.4	–	–	–	–	–	–	–	–	–
c1cc(NC2=NCCN2)cc(Sc2ccc(NC3=NCCN3)cc2)c1	3.2	2.5	1.6	< 2.4	–	–	–	–	–	–	–	–	–

Results, then the compound that gave them:

K [1] [×10⁵ /M]	K [2] [×10⁵ /M]	K [3] [×10⁵ /M]	Selectivity Index [4]	ΔTm [5] [°C]	ΔTm (Salmonidae [6]) [°C]	Activity [7]	ΔTm [8] [°C]	Activity (Salmonidae [9])	K [10] [×10⁵ /M]	K (Salmonidae [11]) [×10⁵ /M]	K [12] [×10⁵ /M]	Activity [13]	SMILES
5.1	5.5	2.7	< 2.4	1	20	inactive	12	inactive	–	–	–	–	c1cc2c(cc1NC1=NCCN1)Cc1ccc(NC3=NCCN3)cc1C2
36.2	6.5	15	< 2.4	26	9	Active	31	Active	9.2	1.9	14	–	c1cc2c(cc1NC1=NCCN1)Cc1ccc(NC3=NCCN3)cc1-2
–	–	–	–	-3	4	inactive	4	inactive	–	–	–	–	N=C(N)Nc1ccc2c(c1)Cc1ccc(NC(=N)N)cc1C2
–	–	–	–	22	4	Active	20	Active	–	–	–	Active	N=C(N)Nc1ccc2c(c1)Cc1ccc(NC3=NCCN3)cc1-2
